From US20050090529A1, “3,5 Disubstituted indazole compounds with nitrogen-bearing 5-membered heterocycles, pharmaceutical compositions, and methods for mediating or inhibiting cell proliferation” (PFIZER INC, priority 2003, published 2005)
≈ marks a conversion by molar mass, not a printed value. Like-named read-outs stand apart in the source and are kept apart here.

Experiments:
CDK2/Cyclin A = target: T1, CDK2/Cyclin A (Homo sapiens, UniProt P24941); assay: Inhibition of CDK2/Cyclin A retinoblastoma kinase activity (apparent Ki); assay type: biochemical
T1 construct: made in house; host or cells: CDK2: insect cells (baculovirus); cyclin A: E. coli
Method: Cyclin-dependent kinase activity was measured by quantifying the enzyme-catalyzed, time-dependent incorporation of radioactive phosphate from [^32P]ATP or [^33P]ATP into a protein substrate. […] Reactions were initiated with enzyme, incubated at 30° C., and terminated after 20 minutes by the addition of ethylenediaminetetraacetic acid (EDTA) to 250 mM. […] Radioactivity was quantified by exposing the dried membranes to a phosphorimager.
Apparent Ki values were measured by assaying enzyme activity in the presence of different inhibitor compound concentrations and subtracting the background radioactivity measured in the absence of enzyme. Inhibition data were fit to an equation for competitive inhibition using Kaleidagraph (Synergy Software), or were fit to an equation for competitive tight-binding inhibition using the software KineTic (BioKin, Ltd.).
A complex of CDK2 and proteolyzed cyclin A was prepared and purified by gel filtration. […] Ki values were measured as described above.

[1] = Measurement of kinetic solubility; conditions: 100 mM sodium phosphate buffer, pH 6.5, aqueous buffer, kinetic from dmso stock
Method: Kinetic solubility was determined with a […] stock solution from the compound(s) of interest. […] Samples and standards were then centrifuged and an aliquot was removed for HPLC analysis. Samples and standards were analyzed by HPLC and a final concentration for the sample was determined based on a one-point calibration curve from the corresponding standard. Results were reported as μg's/mL.

| Structure (SMILES) | Ki (CDK2/Cyclin A; read-out: CDK2 Ki) | solubility [1] | Ki (CDK2/Cyclin A) |
| --- | --- | --- | --- |
| CCNCc1cncc(-c2ccc3[nH]nc(-c4nc(-c5ccccc5)c(C(=O)NC5CCCC5)[nH]4)c3c2)c1C [Example 8, 2-[5-(5-Ethylaminomethyl-4-methyl-pyridin-3-yl)-1H-indazol-3-yl]-5-phenyl-3H-imidazole-4-carboxylic acid cyclopentylamide] | 50 to 200 nM | 20 to 120 µg/mL (≈ 38.5 to 231 µM) |  |
| CCNCc1cncc(-c2ccc3[nH]nc(-c4nc(-c5ccccc5)c(C(=O)N5CCC[C@@H]5COC)[nH]4)c3c2)c1C [Example 15, {2-[5-(5-Ethylaminomethyl-4-methyl-pyridin-3-yl)-1H-indazol-3-yl]-5-phenyl-3H-imidazol-4-yl}-(2-methoxymethyl-pyrrolidin-1-yl)-methanone] | > 200 nM | > 120 µg/mL |  |
| CCNCc1cncc(-c2ccc3[nH]nc(-c4nc(CC)c(C)[nH]4)c3c2)c1C [Example 23, Ethyl-{5-[3-(4-ethyl-5-methyl-1H-imidazol-2-yl)-1H-indazol-5-yl]-4-methyl-pyridin-3-ylmethyl}-amine] | < 50 nM | > 120 µg/mL |  |
| COCc1cncc(-c2ccc3[nH]nc(-c4nc5c([nH]4)CCCC5)c3c2)c1C [Example 41, 5-(5-Methoxymethyl-4-methyl-pyridin-3-yl)-3-(4,5,6,7-tetrahydro-1H-benzoimidazol-2-yl)-1H-indazole] | < 50 nM | > 120 µg/mL |  |
| CCNCc1cncc(-c2ccc3[nH]nc(-c4nc(C(=O)NCCOC)c[nH]4)c3c2)c1C [Example 65, 2-(5-{5-[(ethylamino)methyl]-4-methylpyridin-3-yl}-1H-indazol-3-yl)-N-(2-methoxyethyl)-1H-imidazole-5-carboxamide] |  | > 120 µg/mL | < 50 nM |
| CCNCc1cncc(-c2ccc3[nH]nc(-c4nc(C(=O)NC5CN6CCC5CC6)c[nH]4)c3c2)c1C (stereo in doubt) [Example 73, N-[(3S)-1-azabicyclo[2.2.2]oct-3-yl]-2-(5-{5-[(ethylamino)methyl]-4-methylpyridin-3-yl}-1H-indazol-3-yl)-1H-imidazole-5-carboxamide] | 50 to 200 nM | > 120 µg/mL |  |
| CCNCc1cncc(-c2ccc3[nH]nc(-c4nc(-c5ccc(Cl)cc5)c(C)[nH]4)c3c2)c1C [Example 25, (5-{3-[4-(4-Chloro-phenyl)-5-methyl-1H-imidazol-2-yl]-1H-indazol-5-yl}-4-methyl-pyridin-3-ylmethyl)-ethyl-amine] | < 50 nM | 20 to 120 µg/mL (≈ 43.8 to 263 µM) |  |
| CCNCc1cncc(-c2ccc3[nH]nc(-c4nc(-c5cccc(C(F)(F)F)c5)c(C)[nH]4)c3c2)c1C [Example 27, Ethyl-(4-methyl-5-{3-[5-methyl-4-(3-trifluoromethyl-phenyl)-1H-imidazol-2-yl]-1H-indazol-5-yl}-pyridin-3-ylmethyl)-amine] | < 50 nM | < 20 µg/mL |  |
| CCNCc1cncc(-c2ccc3[nH]nc(-c4nc(-c5ccccc5)c(C(=O)NCC)[nH]4)c3c2)c1C [Example 2, 2-[5-(5-Ethylaminomethyl-4-methyl-pyridin-3-yl)-1H-indazol-3-yl]-5-phenyl-3H-imidazole-4-carboxylic acid ethylamide] | 50 to 200 nM | 20 to 120 µg/mL (≈ 41.7 to 250 µM) |  |
| CCNCc1cncc(-c2ccc3[nH]nc(-c4nc(C)c(C)[nH]4)c3c2)c1C [Example 24, {5-[3-(4,5-Dimethyl-1H-imidazol-2-yl)-1H-indazol-5-yl]-4-methyl-pyridin-3-ylmethyl}-ethyl-amine] | < 50 nM | > 120 µg/mL |  |
| CCNCc1cncc(-c2ccc3[nH]nc(-c4nc(-c5ccccc5)c(C(=O)NCCOC)[nH]4)c3c2)c1C [Example 3, 2-[5-(5-Ethylaminomethyl-4-methyl-pyridin-3-yl)-1H-indazol-3-yl]-5-phenyl-3H-imidazol-4-carboxylic acid (2-methoxy-ethyl)-amide] | 50 to 200 nM | 20 to 120 µg/mL (≈ 39.2 to 235 µM) |  |
| CCNCc1cncc(-c2ccc3[nH]nc(-c4ncc(C(=O)N[C@@H]5CCc6ccccc65)[nH]4)c3c2)c1C [Example 51, N-[(1R)-2,3-dihydro-1H-inden-1-yl]-2-(5-{5-[(ethylamino)methyl]-4-methylpyridin-3-yl}-1H-indazol-3-yl)-1H-imidazole-5-carboxamide] | < 50 nM | 20 to 120 µg/mL (≈ 40.7 to 244 µM) |  |
| CCNCc1cncc(-c2ccc3[nH]nc(-c4cnc[nH]4)c3c2)c1C [Example 90, N-({5-[3-(1H-imidazol-5-yl)-1H-indazol-5-yl]-4-methylpyridin-3-yl}methyl)ethanamine] | < 50 nM | > 120 µg/mL |  |
| CCNCc1cncc(-c2ccc3[nH]nc(-c4ncc(C(=O)N5CCCC5)[nH]4)c3c2)c1C [Example 61, N-[(4-methyl-5-{3-[5-(pyrrolidin-1-ylcarbonyl)-1H-imidazol-2-yl]-1H-indazol-5-yl}pyridin-3-yl)methyl]ethanamine] | < 50 nM | 20 to 120 µg/mL (≈ 46.6 to 279 µM) |  |
| CCNCc1cncc(-c2ccc3[nH]nc(-c4nc(-c5ccccc5)c(C(=O)NCC(C)C)[nH]4)c3c2)c1C [Example 7, 2-[5-(5-Ethylaminomethyl-4-methyl-pyridin-3-yl)-1H-indazol-3-yl]-5-phenyl-3H-imidazole-4-carboxylic acid isobutyl-amide] | 50 to 200 nM | 20 to 120 µg/mL (≈ 39.4 to 236 µM) |  |
| CCNCc1cncc(-c2ccc3[nH]nc(-c4nc(C(=O)NC5CCCCC5)c[nH]4)c3c2)c1C [Example 50, N-cyclohexyl-2-(5-{5-[(ethylamino)methyl]-4-methylpyridin-3-yl}-1H-indazol-3-yl)-1H-imidazole-5-carboxamide] | < 50 nM | 20 to 120 µg/mL (≈ 43.7 to 262 µM) |  |
| CCNCc1cncc(-c2ccc3[nH]nc(-c4nc5c([nH]4)CCCC5)c3c2)c1CC [Example 46, Ethyl-{4-ethyl-5-[3-(4,5,6,7-tetrahydro-1H-benzoimidazol-2-yl)-1H-indazol-5-yl]-pyridin-3-ylmethyl}-amine] | < 50 nM | > 120 µg/mL |  |
| COCc1cncc(-c2ccc3[nH]nc(-c4ncc[nH]4)c3c2)c1C [Example 42, 3-(1H-Imidazol-2-yl)-5-(5-methoxymethyl-4-methyl-pyridin-3-yl)-1H-indazole] | 50 to 200 nM | > 120 µg/mL |  |
| CCNCc1cncc(-c2ccc3[nH]nc(-c4ncc(C(=O)N5CCN(c6ccc(F)cc6F)CC5)[nH]4)c3c2)c1C [Example 69, N-({5-[3-(5-{[4-(2,4-difluorophenyl)piperazin-1-yl]carbonyl}-1H-imidazol-2-yl)-1H-indazol-5-yl]-4-methylpyridin-3-yl}methyl)ethanamine] | < 50 nM | 20 to 120 µg/mL (≈ 35.9 to 216 µM) |  |
| CCNCc1cncc(-c2ccc3[nH]nc(-c4nc(CC)c(CC)[nH]4)c3c2)c1C [Example 22, {5-[3-(4,5-Diethyl-1H-imidazol-2-yl)-1H-indazol-5-yl]-4-methyl-pyridin-3-ylmethyl}-ethyl-amine] | < 50 nM | > 120 µg/mL |  |
| CCNCc1cncc(-c2ccc3[nH]nc(-c4nc(C(=O)NC5CCNCC5)c[nH]4)c3c2)c1C [Example 76, 2-(5-{5-[(ethylamino)methyl]-4-methylpyridin-3-yl}-1H-indazol-3-yl)-N-piperidin-4-yl-1H-imidazole-5-carboxamide] | 50 to 200 nM | > 120 µg/mL |  |
| c1c[nH]c(-c2n[nH]c3ccc(-c4cncc5[nH]ccc45)cc23)n1 [Example 94, 3-(1H-Imidazol-2-yl)-5-(1H-pyrrolo[2,3-c]pyridin-4-yl)-1H-indazole] | < 50 nM | 20 to 120 µg/mL (≈ 66.6 to 400 µM) |  |
| CCOCc1cncc(-c2ccc3[nH]nc(-c4nc5c([nH]4)CCCC5)c3c2)c1C [Example 43, 5-(5-Ethoxymethyl-4-methyl-pyridin-3-yl)-3-(4,5,6,7-tetrahydro-1H-benzoimidazol-2-yl)-1H-indazole] | 50 to 200 nM | 20 to 120 µg/mL (≈ 51.6 to 310 µM) |  |
| c1ncc(-c2n[nH]c3ccc(-c4cncc5[nH]ccc45)cc23)[nH]1 [Example 95, 3-(3H-Imidazol-4-yl)-5-(1H-pyrrolo[2,3-c]pyridin-4-yl)-1H-indazole] | < 50 nM | 20 to 120 µg/mL (≈ 66.6 to 400 µM) |  |
| CCNCc1cncc(-c2ccc3[nH]nc(-c4ncc(C(=O)N[C@H]5CCc6ccccc65)[nH]4)c3c2)c1C [Example 53, N-[(1S)-2,3-dihydro-1H-inden-1-yl]-2-(5-{5-[(ethylamino)methyl]-4-methylpyridin-3-yl]-1H-indazol-3-yl)-1H-imidazole-5-carboxamide] | < 50 nM | 20 to 120 µg/mL (≈ 40.7 to 244 µM) |  |
| CCCc1nc(-c2n[nH]c3ccc(-c4cncc(CNCC)c4C)cc23)[nH]c1C [Example 19, Ethyl-{4-methyl-5-[3-(5-methyl-4-propyl-1H-imidazol-2-yl)-1H-indazol-5-yl]-pyridin-3-ylmethyl}-amine] | < 50 nM | 20 to 120 µg/mL (≈ 51.5 to 309 µM) |  |
| CCNCc1cncc(-c2ccc3[nH]nc(-c4nc(C(=O)N5CCCCCC5)c[nH]4)c3c2)c1C [Example 74, N-[(5-{3-[5-(azepan-1-ylcarbonyl)-1H-imidazol-2-yl]-1H-indazol-5-yl}-4-methylpyridin-3-yl)methyl]ethanamine] | < 50 nM | > 120 µg/mL |  |
| CCNCc1cncc(-c2ccc3[nH]nc(-c4nc(-c5ccccc5)c(C(=O)NCCCOC)[nH]4)c3c2)c1C [Example 11, 2-[5-(5-Ethylaminomethyl-4-methyl-pyridin-3-yl)-1H-indazol-3-yl]-5-phenyl-3H-imidazole-4-carboxylic acid (3-methoxy-propyl)-amide] | 50 to 200 nM | > 120 µg/mL |  |
